Source: EPA's ToxRefDB 2

What was measured:
[1] = system: rat; details: Multigenerational reproductive toxicity study, sprague dawley, Oral, Gavage/Intubation, dose end: 2 generation
[2] = system: rat; details: Prenatal developmental toxicity study, fischer, Oral, Gavage/Intubation, dose end: 15 GD
[3] = system: rat; details: Multigenerational reproductive toxicity study, other, Oral, Feed, dose end: 2 generation
[4] = system: dog; details: Chronic toxicity; beagle; Oral; Feed; dose end: 52 week; group: systemic; systemic / in life observation / body weight / body weight + systemic / in life observation / food consumption / food consumption + systemic…
[5] = system: rat; details: Subchronic oral toxicity in rodents, Feed, dose end: 13 week, group: systemic, systemic / clinical chemistry / aspartate aminotransferase (ast/sgot) / aspartate aminotransferase (ast/sgot) + systemic / clinical …
[6] = system: rat; details: Chronic toxicity, fischer, Oral, [Not Specified], dose end: 24 month, group: systemic
[7] = system: mouse; details: Multigenerational reproductive toxicity study, cd1, Oral, Feed, dose end: 1 generation
[8] = system: rat; details: Peri- and post-natal toxicity study (Segment III), sprague dawley, Oral, Gavage/Intubation, dose end: 40 PND
[9] = system: rat; details: Multigenerational reproductive toxicity study, sprague dawley, Oral, Feed, dose end: 2 generation
[10] = system: rat; details: Peri- and post-natal toxicity study (Segment III), sprague dawley, Oral, Gavage/Intubation, dose end: 43 PND
[11] = system: rabbit; details: Prenatal developmental toxicity study, new zealand white, Oral, Gavage/Intubation, dose end: 19 GD
[12] = system: rabbit; details: Prenatal developmental toxicity study, dutch, Oral, Gavage/Intubation, dose end: 19 GD
[13] = system: rat; details: Multigenerational reproductive toxicity study, sprague dawley, Oral, Feed, dose end: 2 generation; remark: listed apart in the source
[14] = system: mouse; details: Prenatal developmental toxicity study, cd1, Oral, Gavage/Intubation, dose end: 15 GD
[15] = system: rat; details: Prenatal developmental toxicity study, sprague dawley, Oral, Gavage/Intubation, dose end: 15 GD
[16] = group: offspring, systemic / organ weight / thymus / absolute
[17] = group: offspring, systemic / organ weight / thymus / absolute + systemic / organ weight / thymus / relative to body weight
[18] = group: parental, systemic / organ weight / liver / absolute + systemic / organ weight / liver / relative to body weight
[19] = group: parental, systemic / organ weight / liver / absolute + systemic / organ weight / liver / relative to body weight + systemic / in life observation / …
[20] = group: developmental, systemic / in life observation / body weight / fetal weight
[21] = group: maternal, systemic / in life observation / body weight / body weight + systemic / in life observation / body weight / body weight gain + systemic / in…
[22] = group: maternal, systemic / in life observation / body weight / body weight gain + systemic / in life observation / food consumption / food consumption
[23] = group: offspring, developmental / offspring survival late / [other] / [other] + systemic / in life observation / body weight / offspring (pup) weight
[24] = group: parental, systemic / in life observation / body weight / body weight + systemic / in life observation / food consumption / food consumption
[25] = group: reproductive, reproductive / offspring survival early / litter size / litter size + reproductive / offspring survival early / live fetuses / live fetuses
[26] = systemic / pathology microscopic / testes / atrophy
[27] = group: parental, systemic / in life observation / body weight / body weight + systemic / organ weight / kidney / nos + systemic / organ weight / liver / nos…
[28] = group: reproductive, reproductive / reproductive performance / fertility / fertility + reproductive / offspring survival early / live fetuses / live fetuses
[29] = group: reproductive, reproductive / reproductive performance / fertility / fertility + reproductive / offspring survival early / live fetuses / live fetuses + …
[30] = group: maternal, reproductive / reproductive performance / estrous cycle / corpora lutea
[31] = group: parental, systemic / pathology microscopic / ovary / follicle count + systemic / pathology microscopic / uterus / thickened
[32] = group: offspring, systemic / in life observation / body weight / offspring (pup) weight
[33] = group: parental, systemic / organ weight / ovary / nos
[34] = group: reproductive, reproductive / reproductive performance / gestational length / gestational length
[35] = group: developmental, developmental / developmental landmark / vaginal opening / vaginal opening
[36] = group: maternal, reproductive / reproductive performance / estrous cycle / [other]
[37] = group: maternal, reproductive / reproductive performance / estrous cycle / [other] + reproductive / reproductive performance / estrous cycle / abnormal + …
[38] = group: parental, systemic / organ weight / liver / absolute + systemic / organ weight / ovary / absolute + systemic / organ weight / pituitary gland / …
[39] = group: developmental, developmental / developmental malformation / bone / misshapen + developmental / developmental malformation / gallbladder / hypoplasia + …
[40] = group: cholinesterase, cholinesterase / cholinesterase / cholinesterase / brain cholinesterase (che) + cholinesterase / cholinesterase / cholinesterase / …
[41] = group: developmental, developmental / developmental malformation / bone / incomplete ossification
[42] = group: maternal, reproductive / reproductive performance / resorptions / resorptions + systemic / in life observation / clinical signs / abnormal feces
[43] = group: parental, systemic / in life observation / body weight / body weight + systemic / organ weight / ovary / nos
[44] = group: parental, systemic / in life observation / body weight / body weight + systemic / organ weight / ovary / nos + systemic / pathology microscopic / …
[45] = group: reproductive, reproductive / reproductive performance / fertility / fertility
[46] = group: reproductive, reproductive / reproductive performance / fertility / fertility + reproductive / reproductive performance / estrous cycle / corpora lutea
[47] = group: maternal, systemic / in life observation / mortality / mortality
[48] = group: maternal, systemic / in life observation / mortality / mortality + systemic / organ weight / liver / absolute + systemic / organ weight / uterus / nos
[49] = group: maternal, systemic / in life observation / body weight / body weight gain + systemic / in life observation / clinical signs / fur (altered appearance…

CCCCc1ccccc1 [Butylbenzene]
NEL [1, 16]: 100 mg/kg/day
NOAEL [1, 16]: 100 mg/kg/day
LEL [1, 17]: 300 mg/kg/day
LOAEL [1, 17]: 300 mg/kg/day
LEL [1, 18]: 30 mg/kg/day
NEL [1, 18]: < 30 mg/kg/day
LOAEL [1, 19]: 100 mg/kg/day
NOAEL [1, 19]: 30 mg/kg/day

Cl/C=C\C[N+]12CN3CN(CN(C3)C1)C2.[Cl-] [Chloroallyl methenamine chloride]
LEL [2, 20]: 75 mg/kg/day
LOAEL [2, 20]: > 75 mg/kg/day
NEL [2, 20]: 25 mg/kg/day
NOAEL [2, 20]: ≥ 75 mg/kg/day
LOAEL [2, 21]: 75 mg/kg/day
NOAEL [2, 21]: 25 mg/kg/day
LEL [2, 22]: 25 mg/kg/day
NEL [2, 22]: < 25 mg/kg/day
LEL [3, 23]: 14.8 mg/kg/day
LOAEL [3, 23]: > 14.8 mg/kg/day
NEL [3, 23]: 5 mg/kg/day
NOAEL [3, 23]: ≥ 14.8 mg/kg/day
LEL [3, 24]: 4.57 mg/kg/day
LOAEL [3, 24]: > 13.4 mg/kg/day
NEL [3, 24]: 1.53 mg/kg/day
NOAEL [3, 24]: ≥ 13.4 mg/kg/day
NEL ([3]; group: reproductive, reproductive / offspring survival early / litter size / litter size): 5 mg/kg/day
LEL [3, 25]: 14.8 mg/kg/day
LOAEL [3, 25]: > 14.8 mg/kg/day
NOAEL [3, 25]: ≥ 14.8 mg/kg/day

Cc1ccccc1CO[C@@H]1C[C@@]2(C(C)C)CC[C@]1(C)O2 [Cinmethylin]
LEL [4]: 75 mg/kg/day
LOAEL [4]: 75 mg/kg/day
NEL [4]: 7.5 mg/kg/day
NOAEL [4]: 7.5 mg/kg/day
LEL [5]: 1.5 mg/kg/day
LOAEL [5]: > 50 mg/kg/day
NEL [5]: < 1.5 mg/kg/day
NOAEL [5]: ≥ 50 mg/kg/day
LOAEL ([6]; systemic / pathology microscopic / kidney / nephropathy): 150 mg/kg/day
NOAEL ([6]; systemic / pathology microscopic / kidney / nephropathy + systemic / organ weight / liver / relative to body weight + systemic / organ …): 5 mg/kg/day
LEL [6, 26]: 1.5 mg/kg/day
NEL [6, 26]: < 1.5 mg/kg/day

CCCCCOC(=O)c1ccccc1C(=O)OCCCCC [Dipentyl phthalate]
NEL ([7]; group: parental, systemic / in life observation / body weight / body weight + systemic / organ weight / kidney / nos + systemic / organ weight / liver / nos): 2.16 mg/kg/day
LEL [7, 27]: 4.79 mg/kg/day
LOAEL [7, 27]: > 4.79 mg/kg/day
NOAEL [7, 27]: ≥ 4.79 mg/kg/day
LEL [7, 28]: 0.76 mg/kg/day
NEL [7, 28]: < 0.76 mg/kg/day
LOAEL [7, 29]: > 4.79 mg/kg/day
NOAEL [7, 29]: ≥ 4.79 mg/kg/day

CC(C)COC(=O)c1ccc(O)cc1 [Isobutylparaben]
LEL [8, 30]: 62.5 mg/kg/day
LOAEL [8, 30]: > 1000 mg/kg/day
NEL [8, 30]: < 62.5 mg/kg/day
NOAEL [8, 30]: ≥ 1000 mg/kg/day
LEL [8, 31]: 62.5 mg/kg/day
LOAEL [8, 31]: > 1000 mg/kg/day
NEL [8, 31]: < 62.5 mg/kg/day
NOAEL [8, 31]: ≥ 1000 mg/kg/day

CC1(C)CCC(Cc2ccc(Cl)cc2)C1(O)Cn1cncn1 (stereo not drawn) [Metconazole]
LEL [9, 32]: 32 mg/kg/day
LOAEL [9, 32]: 32 mg/kg/day
NEL [9, 32]: 8 mg/kg/day
NOAEL [9, 32]: 8 mg/kg/day
LEL [9, 33]: 32 mg/kg/day
LOAEL [9, 33]: 32 mg/kg/day
NEL [9, 33]: 8 mg/kg/day
NOAEL [9, 33]: 8 mg/kg/day
LEL [9, 34]: 32 mg/kg/day
LOAEL [9, 34]: > 32 mg/kg/day
NEL [9, 34]: 8 mg/kg/day
NOAEL [9, 34]: ≥ 32 mg/kg/day

COc1ccc(C(c2ccc(OC)cc2)C(Cl)(Cl)Cl)cc1 [Methoxychlor]
LEL [10, 35]: 12.5 mg/kg/day
LOAEL [10, 35]: > 50 mg/kg/day
NEL [10, 35]: < 12.5 mg/kg/day
NOAEL [10, 35]: ≥ 50 mg/kg/day
LEL [10, 36]: 12.5 mg/kg/day
NEL [10, 36]: < 12.5 mg/kg/day
LOAEL [10, 37]: > 50 mg/kg/day
NOAEL [10, 37]: ≥ 50 mg/kg/day
LEL [10, 38]: 50 mg/kg/day
LOAEL [10, 38]: > 50 mg/kg/day
NEL [10, 38]: 25 mg/kg/day
NOAEL [10, 38]: ≥ 50 mg/kg/day

CC1=C(C(=O)Nc2ccccc2)S(=O)(=O)CCO1 [Oxycarboxin]
LEL [11, 39]: 750 mg/kg/day
LOAEL [11, 39]: 750 mg/kg/day
NEL [11, 39]: 150 mg/kg/day
NOAEL [11, 39]: 150 mg/kg/day
LEL [11, 21]: 750 mg/kg/day
LOAEL [11, 21]: 750 mg/kg/day
NEL [11, 21]: 150 mg/kg/day
NOAEL [11, 21]: 150 mg/kg/day

CCS(=O)CCSP(=O)(OC)OC (stereo not drawn) [Oxydemeton-methyl]
LEL [12, 40]: 1.6 mg/kg/day
LOAEL [12, 40]: 1.6 mg/kg/day
NEL [12, 40]: 0.4 mg/kg/day
NOAEL [12, 40]: 0.4 mg/kg/day
LEL [12, 41]: 0.1 mg/kg/day
LOAEL [12, 41]: 0.1 mg/kg/day
NEL [12, 41]: < 0.1 mg/kg/day
NOAEL [12, 41]: < 0.1 mg/kg/day
LOAEL [12, 42]: > 1.6 mg/kg/day
NEL [12, 42]: 0.1 mg/kg/day
NOAEL [12, 42]: ≥ 1.6 mg/kg/day
LEL ([12]; group: maternal, systemic / in life observation / clinical signs / abnormal feces): 0.4 mg/kg/day
LEL [13, 23]: 2.1 mg/kg/day
LOAEL [13, 23]: 2.1 mg/kg/day
NEL [13, 23]: 0.38 mg/kg/day
NOAEL [13, 23]: 0.38 mg/kg/day
NEL [13, 43]: 0.38 mg/kg/day
NOAEL [13, 43]: 0.38 mg/kg/day
LEL [13, 44]: 2.1 mg/kg/day
LOAEL [13, 44]: 2.1 mg/kg/day
NEL [13, 45]: 0.38 mg/kg/day
NOAEL [13, 45]: 0.38 mg/kg/day
LEL [13, 46]: 2.1 mg/kg/day
LOAEL [13, 46]: 2.1 mg/kg/day

CN(C)[C@@H]1C(=O)C(C(N)=O)=C(O)[C@@]2(O)C(=O)C3=C(O)c4c(O)cccc4[C@@](C)(O)[C@H]3[C@H](O)[C@@H]12 [Oxytetracycline]
LEL [14, 20]: 2100 mg/kg/day
LOAEL [14, 20]: > 2100 mg/kg/day
NEL [14, 20]: 1670 mg/kg/day
NOAEL [14, 20]: ≥ 2100 mg/kg/day
LEL [14, 47]: 1320 mg/kg/day
NEL [14, 47]: < 1320 mg/kg/day
LOAEL [14, 48]: > 2100 mg/kg/day
NOAEL [14, 48]: ≥ 2100 mg/kg/day
LEL [15, 20]: 1200 mg/kg/day
LOAEL [15, 20]: > 1500 mg/kg/day
NEL [15, 20]: < 1200 mg/kg/day
NOAEL [15, 20]: ≥ 1500 mg/kg/day
LEL [15, 49]: 1200 mg/kg/day
LOAEL [15, 49]: > 1500 mg/kg/day
NEL [15, 49]: < 1200 mg/kg/day
NOAEL [15, 49]: ≥ 1500 mg/kg/day
